Series [1] is described as follows: Cytotoxicity against human PC3 cells measured after 72 hrs by MTT assay. Format: functional, cell-based. Conditions: PC-3, 72 h. For orientation: Tetrazolium dyes change colour on reduction, which living cells bring about.
Series [2] is described as follows: Cytotoxicity against human SGC7901 cells measured after 72 hrs by MTT assay. The format is functional, cell-based. The settings on record: SGC-7901, 72 h.
The nature of series [3]: Cytotoxicity against human A549 cells measured after 72 hrs by MTT assay. Format: functional, cell-based. The settings on record: A549, 72 h.
Series [4] can be described thus: Cytotoxicity against human MDA-MB-435S cells measured after 72 hrs by MTT assay. Format: functional, cell-based.
A short description of series [5]: Cytotoxicity against human L02 measured after 72 hrs by MTT assay. The format is toxicity. Conditions: L02 cells.
Another series concerns A549. Briefly: Selectivity index, ratio of IC50 for human L02 cells to IC50 for human A549 cells. The format is functional.
In the next series the test system is SGC-7901. Briefly: Selectivity index, ratio of IC50 for human L02 cells to IC50 for human SGC7901 cells. Format: functional.

Consider `CCCCSc1cccc(C(=O)O[C@@H]2O[C@@H]3O[C@]4(C)CC[C@H]5[C@H](C)[C@H](O)C[C@@H]([C@H]2C)[C@@]35OO4)c1`, for which the IC50 – broadly, the concentration at which inhibition is half-maximal – came out at 464 µM in series [1], 173 µM in series [2] and 96.1 µM in series [3].
In the case of `COc1ccc(Sc2cccc(C(=O)O[C@@H]3O[C@@H]4O[C@]5(C)CC[C@H]6[C@H](C)[C@H](OC(=O)c7cccc(Sc8ccc(OC)cc8)c7)C[C@@H]([C@H]3C)[C@@]46OO5)c2)cc1`, the IC50 in series [1] stood at 30.5 µM; in series [2], 6 µM; in series [3], 4.3 µM; in series [4], 108 µM. Besides, the IC50 at 72 h in series [5] amounted to 69.2 µM. Also, the figures for the “Ratio IC50” value in the series on A549 and in the series on SGC-7901 were 16.1 and 11.5, respectively.
Consider `C[C@@H]1[C@H](OC(=O)c2cccc(SCc3ccccc3)c2)C[C@H]2[C@@H](C)[C@H](OC(=O)c3cccc(SCc4ccccc4)c3)O[C@@H]3O[C@]4(C)CC[C@@H]1[C@]32OO4`, for which the IC50 is 223 µM in series [3] and 289 µM in series [4].
For `COc1ccc(Sc2cccc(C(=O)O[C@@H]3O[C@@H]4O[C@]5(C)CC[C@H]6[C@H](C)[C@H](O)C[C@@H]([C@H]3C)[C@@]46OO5)c2)cc1`, the IC50 in series [1] amounted to 13 µM; in series [2] it was 7.1 µM; in series [3], 1.6 µM; in series [4], 124 µM. In series [5], this compound gave an IC50 at 72 h of 80.2 µM. For the same compound, the “Ratio IC50” value with A549 stood at 50.1; in the series with SGC-7901, 11.3.
Regarding `C[C@@H]1[C@H](O)C[C@H]2[C@@H](C)[C@H](OC(=O)c3cccc(SC4CCCCC4)c3)O[C@@H]3O[C@]4(C)CC[C@@H]1[C@]32OO4`, the IC50 in series [1] is 204 µM; in series [2] it was 553 µM; in series [3], 33.3 µM; in series [4], 29.6 µM.
On to `CCSc1cccc(C(=O)O[C@@H]2O[C@@H]3O[C@]4(C)CC[C@H]5[C@H](C)[C@H](O)C[C@@H]([C@H]2C)[C@@]35OO4)c1`, for which the values for the IC50 in series [3] and in series [4] were 1440 µM and 120 µM, respectively.
Regarding `CCSc1cccc(C(=O)O[C@@H]2O[C@@H]3O[C@]4(C)CC[C@H]5[C@H](C)[C@H](OC(=O)c6cccc(SCC)c6)C[C@@H]([C@H]2C)[C@@]35OO4)c1`, the IC50 in series [1] is 30 µM; in series [2], 74.2 µM; in series [3], 44.4 µM; in series [4], 112 µM.
Turning to `C[C@@H]1[C@H](O)C[C@H]2[C@@H](C)C(=O)O[C@@H]3O[C@]4(C)CC[C@@H]1[C@]32OO4`, the IC50 in series [3] was determined as 80.4 µM; in series [4] it was 21.9 µM. In series [5], this compound gave an IC50 at 72 h of 146 µM. For the same compound, the “Ratio IC50” value with A549 amounted to 1.8.
`C[C@@H]1[C@H](O)C[C@H]2[C@@H](C)[C@H](OC(=O)c3cccc(SCc4ccccc4)c3)O[C@@H]3O[C@]4(C)CC[C@@H]1[C@]32OO4`: the IC50 in series [1] is 146 µM; in series [3], 95 µM; in series [4], 223 µM.
For the compound `CCCCSc1cccc(C(=O)O[C@@H]2O[C@@H]3O[C@]4(C)CC[C@H]5[C@H](C)[C@H](OC(=O)c6cccc(SCCCC)c6)C[C@@H]([C@H]2C)[C@@]35OO4)c1`, the IC50 in series [1] worked out at 115 µM; in series [2], 85 µM; in series [3], 107 µM.
On to `O=c1[nH]cc(F)c(=O)[nH]1` [FLUOROURACIL], for which the IC50 was found to be 6.8 µM in series [3] and 15.2 µM in series [4]. The same compound gave an IC50 at 72 h in series [5] of 25.9 µM. Besides, the “Ratio IC50” value is reported as 3.8 in the series with A549 and 2.2 in the series on SGC-7901.

For the origin of these results see ChEMBL document CHEMBL3872224, “Synthesis and cytotoxicity of novel artemisinin derivatives containing sulfur atoms” (Eur J Med Chem, 2016).
